Test results: PubChem BioAssay AID248 (DTP/NCI, 2004)
Where “and” joins values, the source holds several entries; their conditions need not be identical. Equal values may be shown once. Inconclusive results and toxic doses are left out. Cut-off read from the data, not from the text of the source: active = T/C of 150% or more; inactive = T/C below 125%.

Tested on: L1210 leukemia ip in BDF1 mice, survival T/C
Assay: NCI In Vivo Anticancer Drug Screen. Data for tumor model L1210 Leukemia (intraperitoneal) in B6D2F1 (BDF1) mice
Details: endpoint: mean survival time, higher = longer survival
Outline: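 Mice bearing the transplanted tumor received compound or vehicle. Survival of the treated group was divided by that of the vehicle-treated control group to give the ratio.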

[1] = dose: 100.0 mg/kg/injection, schedule: Q01DX009 (ip), vehicle: Klucel (hydroxypropylcellulose) (HPC)
[2] = dose: 100.0 mg/kg/injection, schedule: Q04DX002 (ip), vehicle: Klucel (hydroxypropylcellulose) (HPC)
[3] = dose: 200.0 mg/kg/injection, schedule: Q01DX009 (ip), vehicle: Klucel (hydroxypropylcellulose) (HPC)
[4] = dose: 200.0 mg/kg/injection, schedule: Q04DX002 (ip), vehicle: Klucel (hydroxypropylcellulose) (HPC)
[5] = dose: 400.0 mg/kg/injection, schedule: Q01DX009 (ip), vehicle: Klucel (hydroxypropylcellulose) (HPC)
[6] = dose: 400.0 mg/kg/injection, schedule: Q04DX002 (ip), vehicle: Klucel (hydroxypropylcellulose) (HPC)
[7] = dose: 100.0 mg/kg/injection, schedule: Q01DX001 (ip), vehicle: carboxymethylcellulose (CMC)
[8] = dose: 200.0 mg/kg/injection, schedule: Q01DX001 (ip), vehicle: carboxymethylcellulose (CMC)
[9] = dose: 400.0 mg/kg/injection, schedule: Q01DX001 (ip), vehicle: carboxymethylcellulose (CMC)
[10] = dose: 100.0 mg/kg/injection, schedule: Q01DX001 (ip), vehicle: Klucel (hydroxypropylcellulose) (HPC)
[11] = dose: 100.0 mg/kg/injection, schedule: Q04DX003 (ip), vehicle: Klucel (hydroxypropylcellulose) (HPC)
[12] = dose: 200.0 mg/kg/injection, schedule: Q01DX001 (ip), vehicle: Klucel (hydroxypropylcellulose) (HPC)
[13] = dose: 200.0 mg/kg/injection, schedule: Q04DX003 (ip), vehicle: Klucel (hydroxypropylcellulose) (HPC)
[14] = dose: 400.0 mg/kg/injection, schedule: Q01DX001 (ip), vehicle: Klucel (hydroxypropylcellulose) (HPC)
[15] = dose: 400.0 mg/kg/injection, schedule: Q04DX003 (ip), vehicle: Klucel (hydroxypropylcellulose) (HPC)

Measured: T/C

Nc1nc(N)nc(N)n1
inactive: dose: 50.0 mg/kg/injection, schedule: Q04DX002 (ip), vehicle: Klucel (hydroxypropylcellulose) (HPC) 94 % of control | [1] 92 % of control and 113 % of control | [2] 94 % of control | [3] 92 % of control and 99 % of control | [4] 94 % of control and 105 % of control | [5] 95 % of control and 99 % of control | [6] 102 % of control | dose: 800.0 mg/kg/injection, schedule: Q01DX009 (ip), vehicle: Klucel (hydroxypropylcellulose) (HPC) 96 % of control | dose: 1000.0 mg/kg/injection, schedule: Q01DX009 (ip), vehicle: Klucel (hydroxypropylcellulose) (HPC) 103 % of control

Cc1ccccc1NP1(=O)OCCCN1Cc1ccc(Cl)c(Cl)c1 (stereo not given)
inactive: dose: 50.0 mg/kg/injection, schedule: Q01DX001 (ip), vehicle: carboxymethylcellulose (CMC) 98 % of control | [7] 98 % of control | [8] 98 % of control | [9] 93 % of control

COc1ccc(NC(=O)Nc2onc(C)c2C)c(Cl)c1
inactive: [10] 95 % of control | [1] 94 % of control and 100 % of control | [2] 101 % of control | [11] 87 % of control | [12] 97 % of control | [3] 95 % of control and 88 % of control | [4] 95 % of control and 101 % of control | [13] 97 % of control | [14] 104 % of control | [5] 93 % of control and 95 % of control | [6] 96 % of control | [15] 88 % of control | dose: 4000.0 mg/kg/injection, schedule: Q04DX002 (ip), vehicle: Klucel (hydroxypropylcellulose) (HPC) 90 % of control

CC(C)(C)c1cc(/C=N/n2c(-c3ccccc3)nc3ccccc3c2=O)cc(C(C)(C)C)c1O
inactive: [10] 89 % of control | [1] 89 % of control and 91 % of control | [2] 95 % of control | [12] 89 % of control | [3] 95 % of control and 91 % of control | [4] 98 % of control | [14] 93 % of control | [6] 97 % of control and 100 % of control

CC(C)(CO)N=Cc1ccccc1O
inactive: dose: 25.0 mg/kg/injection, schedule: Q04DX003 (ip), vehicle: Klucel (hydroxypropylcellulose) (HPC) 96 % of control | dose: 50.0 mg/kg/injection, schedule: Q04DX003 (ip), vehicle: Klucel (hydroxypropylcellulose) (HPC) 104 % of control | [11] 96 % of control

COc1ccc(O)c(/C=C\C=O)c1
inactive: [7] 100 % of control | [8] 100 % of control | [9] 106 % of control

COc1ccc(OC)c(NC(=O)Oc2ccc(SC)cc2)c1
inactive: [11] 86 % of control | [13] 88 % of control | [15] 86 % of control

Cc1c(CNc2ccc(C(=O)NC(CC(=O)O)CC(=O)O)cc2)ccc2nc(N)nc(N)c12
active: dose: 0.17 mg/kg/injection, schedule: Q01DX009 (ip), vehicle: saline 178 % of control | dose: 0.27 mg/kg/injection, schedule: Q01DX009 (ip), vehicle: saline 161 % of control | dose: 0.62 mg/kg/injection, schedule: Q01DX009 (ip), vehicle: saline 156 % of control and 187 % of control | dose: 2.5 mg/kg/injection, schedule: Q04DX003 (ip), vehicle: saline 175 % of control | dose: 10.0 mg/kg/injection, schedule: Q01DX001 (ip), vehicle: other 173 % of control | dose: 10.0 mg/kg/injection, schedule: Q01DX001 (ip), vehicle: saline 168 % of control | dose: 20.0 mg/kg/injection, schedule: Q01DX001 (ip), vehicle: saline 151 % of control
inactive: dose: 0.11 mg/kg/injection, schedule: Q01DX009 (ip), vehicle: saline 97 % of control | dose: 0.15 mg/kg/injection, schedule: Q01DX009 (ip), vehicle: saline 107 % of control | dose: 1.25 mg/kg/injection, schedule: Q01DX009 (ip), vehicle: saline 112 % of control and 121 % of control | dose: 4.4 mg/kg/injection, schedule: Q01DX009 (ip), vehicle: other 91 % of control | dose: 10.0 mg/kg/injection, schedule: Q04DX003 (ip), vehicle: saline 102 % of control
